# From patent publication US20240165196A1, “Beta-Lactamase Inhibitors” (VIB VZW, priority 2021, published 2024)
# Ends that are not written are not given here.
# Assays:
# [1] = system: strain containing NDM5a; assay: checkerboard assay (FICI), peptide and penicillin; format: cell-based, E. coli
# From the text: (§1) FIGS. 4A-4K. […] IV—Intravenous, IP—Intraperitoneal, SC—Subcutaneously. The data shown is from a single experiment with 4 animals per group. […] (ns—non significant, #—P>0.05, *—P≤0.05, ***—P≤0.01, ****—P≤0.001). (FIG. 4G) FICI plot as in FIG. 2, for the E. coli strains indicated and the combination of penicillin and the TEM3.2 peptide. […] (FIG. 4J) Same as FIG. 4H for peptide BGAL. (FIG. 4K) Same as FIG. 4H for peptide P33.
# (§2) As we wondered about the generality of our peptide design approach, we set out to design a peptide to inactivate a structurally unrelated beta-lactamase. To this end we turned to the Ambler class B beta-lactamase NDM-1 that confers resistance to many beta-lactam antibiotics, including carbapenems, and strains carrying this enzyme was soon dubbed ‘superbugs’ that are only partially sensitive to colistin and tigecycline^49. This enzyme was first isolated from a patient in 200850, by 2010 could be detected in clinical isolates throughout the UK and India^51 and by 2015 was detected in over 70 countries worldwide^52.
# (§3) For the analysis of the synergy between the peptides with other antibiotics, a checkerboard assay was performed. Referring to the MICs of the selected peptides, checkerboard assay was designed to define their FICIs (Fractional Inhibitory Concentration Index) in combinations against different clinical isolates^62,63. Briefly, a total volume of 100 μL of Mueller-Hinton broth was distributed into each well of the 96-well plates. The first compound (peptide) of the combination was serially diluted vertically (128, 64, 32, 16, 8, 4, 2, 0 μg/mL) while the other drug (Beta-lactam or Kanamycin) was diluted horizontally in 96 well plate (from 3200 to 3 μg/mL). The total volume of each microtiter well was inoculated with 100 μL of MHB containing 1×10^6 CFU/mL bacteria. The plates were incubated at 37° C. for 24 h under aerobic conditions without shaking. Calculation of the FICI is used to analyze the results of the checkerboard assay by estimating the degree of synergistic effect. FICI is calculated as the sum of the individual fractional inhibitory concentrations (FICs) for each drug (where MIC A and MIC B denote the MIC of each drug alone, and MIC AA+B and MIC BA+B denote the concentrations of A and B in the drug combination). FICI=(MIC AA+B/MIC A)+(MIC BA+B/MIC B). With FICI≤0.5, the combination of antibiotics considered as a synergistic effect, 0.5<FICI≤1 indicates additivity, FICI>1 indicates indifference.
# [2] = system: strain containing NDM5b; assay: checkerboard assay (FICI), peptide and penicillin; format: cell-based, E. coli
# From the text: as §1, §2, §3
# [3] = system: strain containing TEM-1; assay: checkerboard assay (FICI), peptide and penicillin; format: cell-based, E. coli; conditions: strain TEM-1
# From the text: as §1, §2, §3
# [4] = system: E. coli SHV-11; assay: checkerboard assay (FICI), peptide versus penicillin G; format: cell-based; conditions: strain with SHV-11; FICI below 0.5 = synergy
# From the text: (§4) FIGS. 2A-2M. (FIG. 2A) TEM mutations and their effects on stability (total energy) as predicted by FoldX. […] Dashed line indicates a total energy difference of 0.5 kcal/mol, the FoldX cut-off above which mutations are considered to be destabilizing. (FIG. 2B) Barplot mapping mutations in (FIG. 2A) to the TEM sequence and indicating occurrence. […] The bar heights correspond to the number of times a mutation occurs across different TEM variants (right-hand y-axis). The color coding is identical to that in (FIG. 2A). Red line indicates the TANGO scores (indicated on the left-hand y-axis), with peaks corresponding to APRs. (FIG. 2C) Mapping of mutations in (FIG. 2A) and (FIG. 2B) to the TEM structure (pdb 1xpb). Protein surface is shown in gray, color coding of mutations is identical to (FIG. 2A) and (FIG. 2B). (FIGS. 2D, 2E, and 2F) Temperature-dependent evolution of the Right-Angle Light Scattering (RALS) intensity during a temperature ramp, similar as in FIG. 1F for key mutants of TEM1, namely TEM-10 (FIG. 2D), TEM-30 (FIG. 2E) and TEM-155 (FIG. 2F). Experiments were shown in triplicate, single repeat is shown. (FIG. 2G) Schematic representation of the structure of the peptides. APR—Aggregation Prone Region, R—Arginine. (FIG. 2H) Ribbon representation of the superposition of the crystal structures of TEM (green, pdb id 1bt5) and SHV (blue, pdb id 1shv). The catalytic site of the beta-lactamase activity is indicated and location of APR3 is shown in red. (FIG. 2I) TANGO aggregation score and alignment of APR3 in TEM and SHV. (FIG. 2J) Fractional Inhibitory Concentration Index determination of 5 peptides versus penicillin on E. coli TEM-104. […] FICI values below 0.5 indicate synergy. Values between 0.5 and 1.0 indicate additivity and values greater than 1 indicate indifference between the combined substances. (FIG. 2K) Same as J for E. coli SHV-11. (FIG. 2L) Same as J for a kanamycin resistant E. coli strain. (FIG. 2M) FICI values for the TEM3.2 peptide on a range of E. coli strains.
# (§5) Moreover, the core sequence of peptide TEM3.0 also occurs in the structurally related SHV β-lactamase ([…]). Although the C-terminal extension residues H and N have been replaced with physicochemically similar R and Q, respectively (FIG. 2H). […] To quantify the synergy between these four peptides and penicillin G, we performed a so-called checkerboard assay, which allows to compare the activity of two test compounds co-incubated (here peptide and a beta-lactam antibiotic), to their individual activities in isolation. The result from the assay is quantified as the Fractional Inhibitory Concentration Index (FICI), and it is generally accepted that values below 0.5 indicate synergistic effects between the compounds. As a control, we generated a peptide using the same design, but based on a previously identified APR from the β-galactosidase enzyme (BGAL)^16 from E. coli (APR=SVIIWSL, peptide sequence=[…]) that has a MIC value>100 μg/mL on E. coli strain UZ_TEM104. We evaluated the synergy of the peptides with penicillin G in clinical E. coli isolates carrying the TEM ([…]) or SHV enzymes ([…]). […] As a further control, we also performed a checkerboard assay with an E. coli strain that was resistant to the aminoglycoside kanamycin and observed no synergy between this unrelated antibiotic and our peptides (FIG. 2L), in line with the notion that we are inhibiting a beta-lactamase but not the aminoglycoside degrading enzyme. […] The list of strains included some that harbored only TEM or SHV, but others contained additional Ambler Class A (CTX-M or […]) or Class B (VIM and NDM) beta-lactamases. […] In contrast, the presence of the NDM-type […], that does have a high affinity for Ampicillin and that is completely distinct in sequence and structure from TEM and SHV, seemed to completely prevent the effect of the peptide on the beta-lactam sensitivity of the strains in which it occurred (see also further). […]
# [5] = system: E. coli TEM-104; assay: as above; format: cell-based; conditions: strain with TEM; FICI below 0.5 = synergy
# From the text: as §4, §5
Sequence,synergy with penicillin (FICI) [1],synergy with penicillin (FICI) [2],synergy with penicillin (FICI) [3],synergy with penicillin G (FICI) [4],synergy with penicillin G (FICI) [5]
RLAAALMLRRPRAQILNWIRR (NDM1-2),synergy,synergy,not in a strain containing TEM-1,–,–
RTAQILNWRRPRTAQILNWRR (NDM1-1),synergy,synergy,not in a strain containing TEM-1,–,–
RSVIIWSLGRRPRSVIIWSLGRR [BGAL],neither showed synergy,neither showed synergy,neither showed synergy,no synergy,no synergy
